Test results from patent US9388449B2, “Monitoring protein trafficking using beta-galactosidase reporter fragment complementation” (DiscoveRx Corporation, priority 2011, dated 2016).
Counter-ions that a name gives are not always drawn.

Legend:
ADRB2 W158A mutant = molecular target: T1, ADRB2 W158A mutant (Homo sapiens, UniProt P07550, W158A); experiment: Trafficking assay: β-galactosidase enzyme fragment complementation, ADRB2 W158A-ProLink with endosome-localized EA; type: cell-based; conditions: compound 10 μM; signal of test well divided by signal of buffer-only control wells
T1 construct: expressed in transfected cells
Source text: The ADRB2 is a G-protein coupled receptor containing seven transmembrane regions. It was been shown that mutation of W158 to alanine can cause retention of the protein in the endoplasmic reticulum. Contacting the receptor with small molecules that bind to ADRB2 results in enhanced movement of the protein to the plasma membrane and endosomal compartments.
The first fusion protein used comprises the target peptide (ADRB2W158A-PK) and the first fragment of complementation assay. This construct includes the W158 to alanine mutation. The second fusion protein used comprises endosome localized protein and the second fragment of complementation assay.
(§1) The cells were lysed and the complemented activity was measured using a chemiluminescent b-galactosidase substrate. The values of each well containing a test compound was divided by the signal obtained from the control wells that received only buffer.

ADRB2 W158A = experiment: Arrestin activity assay; type: cell-based; conditions: compound 10 μM; signal of test well divided by signal of buffer-only control wells
Procedure: as §1

ADRB2 = ADRB2 (Homo sapiens, UniProt P07550); experiment: cAMP activity assay (Gs ADRB2); type: cell-based; conditions: compound 10 μM; signal of test well divided by signal of buffer-only control wells
Procedure: as §1

[1] = molecular target: T2, AVPR2 (Arginine vasopressin receptor 2) (Homo sapiens, UniProt P30518); experiment: Trafficking of AVPR2 target peptide by complementation; type: cell-based
T2 construct: expressed in transfected cells
T2 sequence (P30518 whole entry): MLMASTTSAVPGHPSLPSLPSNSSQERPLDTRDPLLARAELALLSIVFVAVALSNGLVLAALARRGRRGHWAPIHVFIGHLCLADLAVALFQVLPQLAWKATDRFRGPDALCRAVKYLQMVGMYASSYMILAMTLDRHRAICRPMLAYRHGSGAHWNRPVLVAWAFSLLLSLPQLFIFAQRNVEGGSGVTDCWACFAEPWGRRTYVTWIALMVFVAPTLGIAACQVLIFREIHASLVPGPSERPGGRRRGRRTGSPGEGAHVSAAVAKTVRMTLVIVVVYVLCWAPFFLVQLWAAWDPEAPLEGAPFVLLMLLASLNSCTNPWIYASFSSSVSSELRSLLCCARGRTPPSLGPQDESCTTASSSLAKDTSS
Source text: (§2) In a model of retinitis, the rhodopsin GPCR was tagged with an ED, and its translocation was studied in response to addition of 9-cis retinol. […] Also, AVPR2 (Arginine vasopressin receptor 2), a GPCR for which antagonists are used therapeutically, was studied with SR49059, a small molecule vasopressin V1a receptor antagonist. […] More than 200 mutations in the AVPR2 gene have been identified in people with nephrogenic diabetes insipidus. Most of these mutations cause the vasopressin V2 receptor protein to be misfolded into an incorrect 3-dimensional shape. Thus the present assay finds particular applicability in identifying compounds that bind to the AVPR2 gene product in the case of a misfolding mutation which occurs in humans.

[2] = molecular target: KCNH2 (hERG) mutant, Kv11.1 potassium ion channel (Homo sapiens, UniProt Q12809); conditions: KCNH2 mutant-PK cells, overnight, FIG. 5 curve fit
Procedure: A single-point mutation is introduced in KCNH2. The second fusion protein used comprises plasma membrane localized protein and the second fragment of complementation assay. The second fragment of complementation assay was localized to the plasma membrane by fusing it to PH domain of phospholipase C gamma.
In this experiment, cells expressing the KCNH2 mutant fused to the first fragment of complementation assay (ProLink™ peptide) and the plasma membrane localized EA were treated with a variety of compounds that bind to the ion channel.
Binding of ligand leads to stabilization (“rescue”) and transport of the protein to the membrane.—PLC(PH)-EA anchors to the membrane. […] The assay is run overnight.

[3] = molecular target: KCNH2 (hERG) mutant, Kv11.1 potassium ion channel (Homo sapiens, UniProt Q12809, form not given); experiment: in vitro
rhodopsin GPCR = experiment: Translocation of ED-tagged rhodopsin GPCR by complementation (model of retinitis); type: cell-based
Source text: as §2

| Compound | Trafficking 5-EA ADRB2 S/B (ADRB2 W158A mutant) | Arrestin W158A S/B (ADRB2 W158A) | cAMP Gs ADRB2 S/B (ADRB2) | also measured |
| --- | --- | --- | --- | --- |
| CCC(NC(C)C)C(O)c1ccc(O)c2[nH]c(=O)ccc12 (stereo not drawn) [Procaterol HCl] | 78.2 | 21.3 | 15.2 |  |
| COc1ccc(S(=O)(=O)N2c3ccc(Cl)cc3[C@](O)(c3ccccc3Cl)[C@@H]2C(=O)N2CCC[C@H]2C(N)=O)cc1OC [SR49059] |  |  |  | dose response of AVPR2 trafficking to compound (result in words) [1]: dose response curve was obtained |
| COc1ccccc1N1CCN(CC(O)COc2cccc3ccccc23)CC1.Cl.Cl (stereo not drawn) [Naftopidil 2HCl] | 6.8 | 1.0 | 1.0 |  |
| O=C(CCCN1CCC(O)(c2ccc(Cl)cc2)CC1)c1ccc(F)cc1 [Haloperidol] |  |  |  | BOTTOM [2]: 7500; HILLSLOPE [2]: 0.5120; LOGEC50 [2]: −1.815; TOP [2]: 537564; EC50 [3]: 15.3 mM |
| CC1=C(/C=C/C(C)=C\C=C\C(C)=C\CO)C(C)(C)CCC1 [9-cis retinol] |  |  |  | translocation of ED-tagged rhodopsin in response to compound (result in words) (rhodopsin GPCR): dose-response curve showed sensitive results |
| CC(C)(C)NC[C@H](O)COc1nsnc1N1CCOCC1.O=C(O)/C=C\C(=O)O [(S)-Timolol maleate] |  | 0.9 |  |  |
| CC(C)(C)NCC(O)COc1cccc2[nH]c(C#N)cc12.CC(C)(C)NCC(O)COc1cccc2[nH]c(C#N)cc12.O=C(O)/C=C/C(=O)O (stereo not drawn) [(—)-Cyanopindolol hemifumarate] | 17.1 | 1.0 | 1.8 |  |
| CC(C)NCC(O)COc1cccc2ccccc12 (stereo not drawn) [Propanolol HCl] |  | 0.9 |  |  |
